Read-outs that look alike come from different tables or passages of the source.
Tests used:
COX-2 = COX-2 in A-172 cells; format: cell-based; conditions: 5 μM psilocybin + 25 μM eugenol vs 5 μM psilocybin alone, eugenol alone 25 μM
Excerpt: (§1) This experiment was designed to explore the synergistic interaction of 5HT2A agonist and a TRP agonists on receptors in the brain that are associated with depression and/or inflammation. […] The development of an inflammatory microenvironment is considered important to the initiation and progression of glioblastoma; however, therapeutic approaches to target inflammation have previously been limited. The abnormal function of IL-6 and IL-8 has been predicted to lead to glioblastoma.
(§2) Thus, unlike the experiments on HSIEC cells described above, no inflammatory treatment was applied to the A-172 cells. The A-172 cells were grown to […] confluence on T-25 flasks to allow a 96-hour duration of exposure of the cells to the compounds of interest

A-172 glioblastoma cells = experiment: MTT cell viability assay in A-172 cells
[1] = test system: Human primary small intestinal epithelial cells (HSIEC)
BDNF = BDNF in A-172 cells; format: cell-based; conditions: escalating doses
Excerpt: as §1, §2

For `C=CCc1ccc(O)c(OC)c1` [eugenol], the “effect on COX-2” value (COX-2) was “increase”, the “Cellular Metabolic Activity” value (A-172 glioblastoma cells; 10 μM, 24 h) was 0.137 and the “Cellular Metabolic Activity” value (A-172 glioblastoma cells; 10 μM, 48 h) was 0.234. For the same molecule, the “Cellular Metabolic Activity” value (A-172 glioblastoma cells; 10 μM, 72 h) was 0.329, the “Cellular Metabolic Activity” value (A-172 glioblastoma cells; 10 μM, 96 h) was 0.533 and the “Cellular Metabolic Activity” value (A-172 glioblastoma cells; 10 μM, time 0) was 0.084. The “Cellular Metabolic Activity” value (A-172 glioblastoma cells; 25 μM, 24 h) was 0.153, the “Cellular Metabolic Activity” value (A-172 glioblastoma cells; 25 μM, 48 h) was 0.266 and the “Cellular Metabolic Activity” value (A-172 glioblastoma cells; 25 μM, 72 h) was 0.318. The “Cellular Metabolic Activity” value (A-172 glioblastoma cells; 25 μM, 96 h) was 0.557, the “Cellular Metabolic Activity” value (A-172 glioblastoma cells; 25 μM, time 0) was 0.083 and the “Cellular Metabolic Activity” value (A-172 glioblastoma cells; 50 μM, 24 h) was 0.146. The “Cellular Metabolic Activity” value (A-172 glioblastoma cells; 50 μM, 48 h) was 0.229, the “Cellular Metabolic Activity” value (A-172 glioblastoma cells; 50 μM, 72 h) was 0.327 and the “Cellular Metabolic Activity” value (A-172 glioblastoma cells; 50 μM, 96 h) was 0.542. For the same molecule, the “Cellular Metabolic Activity” value (A-172 glioblastoma cells; 50 μM, time 0) was 0.086, the “Cellular Metabolic Activity” value (A-172 glioblastoma cells; 100 μM, 24 h) was 0.170 and the “Cellular Metabolic Activity” value (A-172 glioblastoma cells; 100 μM, 48 h) was 0.230. For the same molecule, the “Cellular Metabolic Activity” value (A-172 glioblastoma cells; 100 μM, 72 h) was 0.322, the “Cellular Metabolic Activity” value (A-172 glioblastoma cells; 100 μM, 96 h) was 0.516 and the “Cellular Metabolic Activity” value (A-172 glioblastoma cells; 100 μM, time 0) was 0.082. The “Cellular Metabolic Activity” value (A-172 glioblastoma cells; 200 μM, 24 h) was 0.170, the “Cellular Metabolic Activity” value (A-172 glioblastoma cells; 200 μM, 48 h) was 0.224 and the “Cellular Metabolic Activity” value (A-172 glioblastoma cells; 200 μM, 72 h) was 0.313. The “Cellular Metabolic Activity” value (A-172 glioblastoma cells; 200 μM, 96 h) was 0.431, the “Cellular Metabolic Activity” value (A-172 glioblastoma cells; 200 μM, time 0) was 0.089 and the “Cellular Metabolic Activity” value (A-172 glioblastoma cells; 400 μM, 24 h) was 0.173. For the same molecule, the “Cellular Metabolic Activity” value (A-172 glioblastoma cells; 400 μM, 48 h) was 0.208, the “Cellular Metabolic Activity” value (A-172 glioblastoma cells; 400 μM, 72 h) was 0.272 and the “Cellular Metabolic Activity” value (A-172 glioblastoma cells; 400 μM, 96 h) was 0.422. The “Cellular Metabolic Activity” value (A-172 glioblastoma cells; 400 μM, time 0) was 0.088, the “effect on cell growth (MTT, words)” value (A-172 glioblastoma cells; A-172, psilocybin 80 μM) was “slight inhibitory effect” and the “effect on cell growth / cellular metabolic activity (MTT, words)” value [1] was “slight inhibitory effect on cell growth”. For the same molecule, the “Cellular Metabolic Activity” value ([1]; 10 μM, 24 h) was 0.064, the “Cellular Metabolic Activity” value ([1]; 10 μM, 48 h) was 0.168 and the “Cellular Metabolic Activity” value ([1]; 10 μM, 72 h) was 0.346. For the same molecule, the “Cellular Metabolic Activity” value ([1]; 10 μM, 96 h) was 0.632, the “Cellular Metabolic Activity” value ([1]; 10 μM, time 0) was 0.047 and the “Cellular Metabolic Activity” value ([1]; 50 μM, 24 h) was 0.079. For the same molecule, the “Cellular Metabolic Activity” value ([1]; 50 μM, 48 h) was 0.145, the “Cellular Metabolic Activity” value ([1]; 50 μM, 72 h) was 0.337 and the “Cellular Metabolic Activity” value ([1]; 50 μM, 96 h) was 0.647. The “Cellular Metabolic Activity” value ([1]; 50 μM, time 0) was 0.038, the “Cellular Metabolic Activity” value ([1]; 100 μM, 24 h) was 0.075 and the “Cellular Metabolic Activity” value ([1]; 100 μM, 48 h) was 0.136. The “Cellular Metabolic Activity” value ([1]; 100 μM, 72 h) was 0.346, the “Cellular Metabolic Activity” value ([1]; 100 μM, 96 h) was 0.662 and the “Cellular Metabolic Activity” value ([1]; 100 μM, time 0) was 0.038. The “Cellular Metabolic Activity” value ([1]; 200 μM, 24 h) was 0.064, the “Cellular Metabolic Activity” value ([1]; 200 μM, 48 h) was 0.111 and the “Cellular Metabolic Activity” value ([1]; 200 μM, 72 h) was 0.296. The “Cellular Metabolic Activity” value ([1]; 200 μM, 96 h) was 0.652, the “Cellular Metabolic Activity” value ([1]; 200 μM, time 0) was 0.041 and the “Cellular Metabolic Activity” value ([1]; 400 μM, 24 h) was 0.059. For the same molecule, the “Cellular Metabolic Activity” value ([1]; 400 μM, 48 h) was 0.128, the “Cellular Metabolic Activity” value ([1]; 400 μM, 72 h) was 0.242 and the “Cellular Metabolic Activity” value ([1]; 400 μM, 96 h) was 0.549. The “Cellular Metabolic Activity” value ([1]; 400 μM, time 0) was 0.042, the “Cellular Metabolic Activity” value ([1]; 800 μM, 24 h) was 0.053 and the “Cellular Metabolic Activity” value ([1]; 800 μM, 48 h) was 0.091. For the same molecule, the “Cellular Metabolic Activity” value ([1]; 800 μM, 96 h) was 0.268, the “Cellular Metabolic Activity” value ([1]; 800 μM, time 0) was 0.042 and the “dose resulting in the greatest increase in BDNF” value (BDNF) was 100 µM.
